From the supplement of paper PMC11208160

assay: recombinant UMI read abundance after kanamycin selection (control-corrected) (log10(CPM+1)); higher = more efficient recombination; extreme values may be limits of the assay; sequences stand for … in AGTGCAGAGAAAATCGGCCAGTTTTCTCTGCCTGCAGTCCGCATGCCGTGGGACCCCTTGGGTTCTAACCTGTTGCCTAGATTTATGCAGCGGACTGCCTTTCTCCCAAAGTGATAAACCGG…AGGTTGGTTTCACT; site = the 11-nt donor
In short: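 Each donor and donor-binding-loop pair was tracked by a 12-nt UMI on a plasmid carrying a promoterless kanamycin gene. With a second plasmid supplying a fixed target and T7-inducible IS621 bridge recombinase, the pool was plated in Escherichia coli on IPTG (0.07 mM) plus kanamycin or unselected. Sequencing of recombinant UMIs across the donor–target junction gave counts expressed as log10(CPM+1) after replicate averaging and control-derived scaling.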
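Also: IS621 bridge recombinase in Escherichia coli cells against a fixed T5 target plasmid.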

Sequence | recombinant UMI read abundance (log10)
AGGAAGACATGGACCGGTTTTCCCGGTAATCCGTATTTGCA (site AGGAAGACTTG) | 2.88
AGGAAGACATGGACCGGTTTTCCCGGTAATCCGTATTTGCA (site AGGAAGACTTT) | 2.15
AGGAAGACATGGACCGGTTTTCCCGGTAATCCGTATTTGCA (site AGGAAGCCTGG) | 0
AGGAAGACATGGACCGGTTTTCCCGGTAATCCGTATTTGCA (site AGGAAGCCTTG) | 0
AGGAAGACATGGACCGGTTTTCCCGGTAATCCGTATTTGCA (site AGGAAGCCTTT) | 0
AGGAAGACATGGACCGGTTTTCCCGGTAATCCGTATTTGCA (site AGGAAGGCTAG) | 0
AGGAAGACATGGACCGGTTTTCCCGGTAATCCGTATTTGCA (site AGGAAGGCTTC) | 0
AGGAAGACATGGACCGGTTTTCCCGGTAATCCGTATTTGCA (site AGGAAGGCTTG) | 1.84
AGGAAGACATGGACCGGTTTTCCCGGTAATCCGTATTTGCA (site AGGAAGTCTCG) | 0
AGGAAGACATGGACCGGTTTTCCCGGTAATCCGTATTTGCA (site AGGAAGTCTTA) | 0.81
AGGAAGACATGGACCGGTTTTCCCGGTAATCCGTATTTGCA (site AGGAAGTCTTG) | 1.05
AGGAAGACATGGACCGGTTTTCCCGGTAATCCGTATTTGCA (site AGGAATACTAG) | 0
AGGAAGACATGGACCGGTTTTCCCGGTAATCCGTATTTGCA (site AGGAATACTTC) | 0
AGGAAGACATGGACCGGTTTTCCCGGTAATCCGTATTTGCA (site AGGAATACTTG) | 1.12
AGGAAGACATGGACCGGTTTTCCCGGTAATCCGTATTTGCA (site AGGAATGCTTG) | 0
AGGAAGACATGGACCGGTTTTCCCGGTAATCCGTATTTGCA (site AGGACGACTAG) | 0.0203
AGGAAGACATGGACCGGTTTTCCCGGTAATCCGTATTTGCA (site AGGACGACTTC) | 0.00604
AGGAAGACATGGACCGGTTTTCCCGGTAATCCGTATTTGCA (site AGGACGACTTG) | 0.36
AGGAAGACATGGACCGGTTTTCCCGGTAATCCGTATTTGCA (site AGGACGGCTTG) | 0.00854
AGGAAGACATGGACCGGTTTTCCCGGTAATCCGTATTTGCA (site AGGACTACTTG) | 0
AGGAAGACATGGACCGGTTTTCCCGGTAATCCGTATTTGCA (site AGGAGCACTTG) | 0.0101
AGGAAGACATGGACCGGTTTTCCCGGTAATCCGTATTTGCA (site AGGAGGACTGG) | 0
AGGAAGACATGGACCGGTTTTCCCGGTAATCCGTATTTGCA (site AGGAGGACTTG) | 0

Sequence | recombinant UMI read abundance (log10)
AGGAAGACATGGACCGGTTTTCCCGGTAATCCGTATTTGCA (site AGGAGGACTTT) | 0.0142
AGGAAGACATGGACCGGTTTTCCCGGTAATCCGTATTTGCA (site AGGAGGCCTTG) | 0
AGGAAGACATGGACCGGTTTTCCCGGTAATCCGTATTTGCA (site AGGATAACTTG) | 0.855
AGGAAGACATGGACCGGTTTTCCCGGTAATCCGTATTTGCA (site AGGATGACTCG) | 0.0201
AGGAAGACATGGACCGGTTTTCCCGGTAATCCGTATTTGCA (site AGGATGACTTA) | 0.0119
AGGAAGACATGGACCGGTTTTCCCGGTAATCCGTATTTGCA (site AGGATGACTTG) | 0.688
AGGAAGACATGGACCGGTTTTCCCGGTAATCCGTATTTGCA (site AGGATGTCTTG) | 0
AGGAAGACATGGACCGGTTTTCCCGGTAATCCGTATTTGCA (site AGGCAGACTAG) | 0
AGGAAGACATGGACCGGTTTTCCCGGTAATCCGTATTTGCA (site AGGCAGACTTC) | 0.0244
AGGAAGACATGGACCGGTTTTCCCGGTAATCCGTATTTGCA (site AGGCAGACTTG) | 1.49
AGGAAGACATGGACCGGTTTTCCCGGTAATCCGTATTTGCA (site AGGCAGGCTTG) | 0.0104
AGGAAGACATGGACCGGTTTTCCCGGTAATCCGTATTTGCA (site AGGCATACTTG) | 0
AGGAAGACATGGACCGGTTTTCCCGGTAATCCGTATTTGCA (site AGGCCGACTTG) | 0.00452
AGGAAGACATGGACCGGTTTTCCCGGTAATCCGTATTTGCA (site AGGGAAACTTG) | 0
AGGAAGACATGGACCGGTTTTCCCGGTAATCCGTATTTGCA (site AGGGAGACTCG) | 0
AGGAAGACATGGACCGGTTTTCCCGGTAATCCGTATTTGCA (site AGGGAGACTTA) | 0.00967
AGGAAGACATGGACCGGTTTTCCCGGTAATCCGTATTTGCA (site AGGGAGACTTG) | 1.32
AGGAAGACATGGACCGGTTTTCCCGGTAATCCGTATTTGCA (site AGGGAGTCTTG) | 0
AGGAAGACATGGACCGGTTTTCCCGGTAATCCGTATTTGCA (site AGGGTGACTTG) | 0.161
AGGAAGACATGGACCGGTTTTCCCGGTAATCCGTATTTGCA (site AGGTACACTTG) | 1.06
AGGAAGACATGGACCGGTTTTCCCGGTAATCCGTATTTGCA (site AGGTAGACTGG) | 0
AGGAAGACATGGACCGGTTTTCCCGGTAATCCGTATTTGCA (site AGGTAGACTTG) | 1.88
AGGAAGACATGGACCGGTTTTCCCGGTAATCCGTATTTGCA (site AGGTAGACTTT) | 0.0208

Sequence | recombinant UMI read abundance (log10)
AGGAAGACATGGACCGGTTTTCCCGGTAATCCGTATTTGCA (site AGGTAGCCTTG) | 0
AGGAAGACATGGACCGGTTTTCCCGGTAATCCGTATTTGCA (site AGGTGGACTTG) | 0.577
AGGAAGACATGGACCGGTTTTCCCGGTAATCCGTATTTGCA (site AGTAACACTTG) | 0.00423
AGGAAGACATGGACCGGTTTTCCCGGTAATCCGTATTTGCA (site AGTAAGACTGG) | 0
AGGAAGACATGGACCGGTTTTCCCGGTAATCCGTATTTGCA (site AGTAAGACTTG) | 1.25
AGGAAGACATGGACCGGTTTTCCCGGTAATCCGTATTTGCA (site AGTAAGACTTT) | 0.006
AGGAAGACATGGACCGGTTTTCCCGGTAATCCGTATTTGCA (site AGTAAGCCTTG) | 0
AGGAAGACATGGACCGGTTTTCCCGGTAATCCGTATTTGCA (site AGTAGGACTTG) | 0.855
AGGAAGACATGGACCGGTTTTCCCGGTAATCCGTATTTGCA (site AGTTAGACTTG) | 1
AGGAAGACATGGACCGGTTTTCCCGGTAATCCGTATTTGCA (site ATCAAGACTTG) | 0.869
AGGAAGACATGGACCGGTTTTCCCGGTAATCCGTATTTGCA (site ATGAAGACTAG) | 0
AGGAAGACATGGACCGGTTTTCCCGGTAATCCGTATTTGCA (site ATGAAGACTTC) | 0.0122
AGGAAGACATGGACCGGTTTTCCCGGTAATCCGTATTTGCA (site ATGAAGACTTG) | 1.43
AGGAAGACATGGACCGGTTTTCCCGGTAATCCGTATTTGCA (site ATGAAGGCTTG) | 0
AGGAAGACATGGACCGGTTTTCCCGGTAATCCGTATTTGCA (site ATGAATACTTG) | 0
AGGAAGACATGGACCGGTTTTCCCGGTAATCCGTATTTGCA (site ATGACGACTTG) | 0
AGGAAGACATGGACCGGTTTTCCCGGTAATCCGTATTTGCA (site ATGCAGACTTG) | 0.701
AGGAAGACATGGACCGGTTTTCCCGGTAATCCGTATTTGCA (site CAGAAGACTTG) | 1.43
AGGAAGACATGGACCGGTTTTCCCGGTAATCCGTATTTGCA (site CGGAACACTTG) | 0.912
AGGAAGACATGGACCGGTTTTCCCGGTAATCCGTATTTGCA (site CGGAAGACTGG) | 0
AGGAAGACATGGACCGGTTTTCCCGGTAATCCGTATTTGCA (site CGGAAGACTTG) | 0.801
AGGAAGACATGGACCGGTTTTCCCGGTAATCCGTATTTGCA (site CGGAAGACTTT) | 0.95
